Target: T1, CXCR2 (Homo sapiens, UniProt P25025)
T1 sequence (P25025 1-360): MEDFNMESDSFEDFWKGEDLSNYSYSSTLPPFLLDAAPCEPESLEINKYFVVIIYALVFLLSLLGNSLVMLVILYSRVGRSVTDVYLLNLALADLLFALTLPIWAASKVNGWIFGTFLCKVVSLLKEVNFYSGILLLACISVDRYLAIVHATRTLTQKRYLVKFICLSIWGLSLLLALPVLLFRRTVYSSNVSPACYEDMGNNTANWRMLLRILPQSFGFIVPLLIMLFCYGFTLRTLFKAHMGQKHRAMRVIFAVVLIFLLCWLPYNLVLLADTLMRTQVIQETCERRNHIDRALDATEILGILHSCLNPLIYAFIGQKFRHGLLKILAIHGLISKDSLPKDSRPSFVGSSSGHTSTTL
Test: BRET trafficking of CXCR2/Rluc8 to Venus/Kras or Venus/Rab markers, absence of AT1R
Assay type: cell-based
Conditions: 100 nM CXCL8, 1 μM AngII
Procedure: HEK293FT cells were seeded in 6-well plates at a density of approximately 700,000 cells/well and maintained at 37° C., 5% CO2 in Complete Media (DMEM containing 0.3 mg/ml glutamine, 100 IU/ml penicillin and 100 μg/ml streptomycin (Gibco/Thermo Fisher)) supplemented with 10% fetal calf serum (FCS; Bovogen). Transient transfections were carried out 24 h after seeding using FuGene6™ (Promega) according to manufacturer instructions. 24 h post-transfection, cells were washed with PBS, detached using 0.05% trypsin/0.53 mM EDTA, resuspended in HEPES-buffered phenol red free Complete Media containing 5% FCS and added to a poly-L-lysine-coated white 96-well microplate (Greiner Bio-One). 48 h post-transfection, bioluminescence resonance energy transfer (BRET) assays were carried out following pre-incubation of cells with EnduRen™ (Promega) at a final concentration of 30 μM, at 37° C., 5% CO2 for 2 h. BRET measurements were taken at 37° C. using the LUMlstar™ or CLARIOstar™ (BMG Labtech). Filtered light emissions were measured for 1 s in each of the ‘donor wavelength window’ (460-490 nm for LUMlstar™ or 410-490 nm for CLARIOstar™) and ‘acceptor wavelength window’ (520-550 nm for LUMlstar™ or 520-620 nm for CLARIOstar™).
The BRET signal observed between interacting proteins is normalized by subtracting the background BRET ratio. This can be done in one of two ways (see Pfleger et al. (2006) Cell Signal 18:1664-1670; Pfleger et al. (2006) Nat Protoc 1:336-344): 1) the ratio of the 520-550 nm or 520-620 nm emission over the 460-490 nm or 410-490 nm emission for a cell sample containing only the donor construct is subtracted from the same ratio for a sample containing the interacting acceptor and donor fusion proteins; 2) the ratio of the 520-550 nm or 520-620 nm emission over the 460-490 nm or 410-490 nm emission for a cell sample treated with vehicle is subtracted from the same ratio for a second aliquot of the same cell sample treated with ligand. In the following examples, the second calculation will be used and the signal is described as ligand-induced BRET′. Furthermore, for data shown in FIGS. 4 to 20, all data points in a given set are corrected relative to the final data point prior to agonist treatment, which is fixed to zero. In keys on FIGS. 7 to 20, “>” means “followed by after 50 minutes”, with agonists added at time zero on the x-axes.
Referring now to FIG. 3 (published in Tiulpakov et al (2016) Mol. Endocrinol. 30, 889-904), the proximity of Rluc8-tagged receptors to Venus-tagged Kras plasma membrane marker, or Venus-tagged Rabs specific for distinct subcellular locations, is monitored in live cells and in real-time using BRET. The Rab markers are: Venus/Rab5 (5) for early endosomes; Venus/Rab4 (4) for early endosome recycling; Venus/Rab11a (11) for recycling endosomes; Venus/Rab7 (7) for late endosomes/lysosomes; Venus/Rab9 (9) for late endosome trafficking to the trans-Golgi network; Venus/Rab1 (1) for endoplasmic reticulum trafficking to the cis-Golgi; Venus/Rab6 (6) for Golgi apparatus and trans-Golgi network; or Venus/Rab8 (8) for trans-Golgi network to plasma membrane.

Angiotensin II [AngII]
no effect: proximity of CXCR2/Rluc8 to Venus/Rab6 (BRET) (Golgi apparatus to trans-Golgi network, FIG. 4I) | proximity of CXCR2/Rluc8 to Venus/Rab4 (BRET) (early endosome recycling, FIG. 4E) | proximity of CXCR2/Rluc8 to Venus/Rab5 (BRET) (early endosomes, FIG. 4G) | proximity of CXCR2/Rluc8 to Venus/Rab1 (BRET) (endoplasmic reticulum to cis-Golgi, FIG. 4C) | proximity of CXCR2/Rluc8 to Venus/Rab9 (BRET) (late endosome to trans-Golgi network, FIG. 4O) | proximity of CXCR2/Rluc8 to Venus/Rab7 (BRET) (late endosomes/lysosomes, FIG. 4K) | proximity of CXCR2/Rluc8 to Venus/Kras (BRET) (plasma membrane marker, FIG. 4A) | proximity of CXCR2/Rluc8 to Venus/Rab11a (BRET) (recycling endosomes, FIG. 4Q) | proximity of CXCR2/Rluc8 to Venus/Rab8 (BRET) (trans-Golgi network to plasma membrane, FIG. 4M)
